# Source: PubChem BioAssay (NCI)
#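 Protocol summary: plate cells (96-well), add compound at 5 concentrations, incubate 48 h, interpolate endpoints linearly. The concentration for 50% growth inhibition is given as GI50. Definition used: TGI = concentration required for complete inhibition of growth.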
# Assays:
# Test in all cases: NCI-60 cell line screen, 48 h
# 786-0 renal = tested on: 786-0 renal
# A498 renal = tested on: A498 renal
# A549 NSCLC = tested on: A549 NSCLC
# ACHN renal = tested on: ACHN renal
# BT-549 breast = tested on: BT-549 breast
# CAKI-1 renal = tested on: CAKI-1 renal
# CCRF-CEM leukemia = tested on: CCRF-CEM leukemia
# COLO 205 colon = tested on: COLO 205 colon
# DU-145 prostate = tested on: DU-145 prostate
# EKVX NSCLC = tested on: EKVX NSCLC
# HCC-2998 colon = tested on: HCC-2998 colon
# HCT-116 colon = tested on: HCT-116 colon
# HCT-15 colon = tested on: HCT-15 colon
# HL-60(TB) leukemia = tested on: HL-60(TB) leukemia
# HOP-62 NSCLC = tested on: HOP-62 NSCLC
# HOP-92 NSCLC = tested on: HOP-92 NSCLC
# HS 578T breast = tested on: HS 578T breast
# HT29 colon = tested on: HT29 colon
# IGROV1 ovarian = tested on: IGROV1 ovarian
# K-562 leukemia = tested on: K-562 leukemia
# KM12 colon = tested on: KM12 colon
# LOX IMVI melanoma = tested on: LOX IMVI melanoma
# M14 melanoma = tested on: M14 melanoma
# MALME-3M melanoma = tested on: MALME-3M melanoma
# MCF7 breast = tested on: MCF7 breast
# MDA-MB-231 breast = tested on: MDA-MB-231 breast
# MDA-MB-435 = tested on: MDA-MB-435
# MOLT-4 leukemia = tested on: MOLT-4 leukemia
# NCI-H226 lung = tested on: NCI-H226 lung
# NCI-H23 lung = tested on: NCI-H23 lung
# NCI-H460 lung = tested on: NCI-H460 lung
# NCI-H522 lung = tested on: NCI-H522 lung
# NCI/ADR-RES ovarian = tested on: NCI/ADR-RES ovarian
# OVCAR-3 ovarian = tested on: OVCAR-3 ovarian
# OVCAR-4 ovarian = tested on: OVCAR-4 ovarian
# OVCAR-5 ovarian = tested on: OVCAR-5 ovarian
# OVCAR-8 ovarian = tested on: OVCAR-8 ovarian
# PC-3 prostate = tested on: PC-3 prostate
# RPMI-8226 leukemia = tested on: RPMI-8226 leukemia
# RXF 393 renal = tested on: RXF 393 renal
# SF-268 CNS = tested on: SF-268 CNS
# SF-295 CNS = tested on: SF-295 CNS
# SF-539 CNS = tested on: SF-539 CNS
# SK-MEL-2 melanoma = tested on: SK-MEL-2 melanoma
# SK-MEL-28 melanoma = tested on: SK-MEL-28 melanoma
# SK-MEL-5 melanoma = tested on: SK-MEL-5 melanoma
# SK-OV-3 ovarian = tested on: SK-OV-3 ovarian
# SN12C renal = tested on: SN12C renal
# SNB-19 CNS = tested on: SNB-19 CNS
# SNB-75 CNS = tested on: SNB-75 CNS
# SR leukemia = tested on: SR leukemia
# SW-620 colon = tested on: SW-620 colon
# T-47D breast = tested on: T-47D breast
# TK-10 renal = tested on: TK-10 renal
# U251 CNS = tested on: U251 CNS
# UACC-257 melanoma = tested on: UACC-257 melanoma
# UACC-62 melanoma = tested on: UACC-62 melanoma
# UO-31 renal = tested on: UO-31 renal
compound,measurement,setting,value
O=C(OCc1ccc2c(Br)cc(Br)c(O)c2n1)c1cc2ccccc2[nH]1,GI50,786-0 renal,0.851 µM
same,TGI,786-0 renal,2.22 µM
same,GI50,A498 renal,1.56 µM
same,TGI,A498 renal,2.96 µM
same,GI50,A549 NSCLC,1.42 µM
same,TGI,A549 NSCLC,3.62 µM
same,GI50,ACHN renal,0.352 µM
same,TGI,ACHN renal,1.27 µM
same,GI50,BT-549 breast,0.706 µM
same,TGI,BT-549 breast,2.06 µM
same,GI50,CAKI-1 renal,0.505 µM
same,TGI,CAKI-1 renal,1.86 µM
same,GI50,CCRF-CEM leukemia,0.293 µM
same,TGI,CCRF-CEM leukemia,2.03 µM
same,GI50,COLO 205 colon,0.511 µM
same,TGI,COLO 205 colon,1.84 µM
same,GI50,DU-145 prostate,0.91 µM
same,TGI,DU-145 prostate,2.18 µM
same,GI50,EKVX NSCLC,1.46 µM
same,TGI,EKVX NSCLC,3 µM
same,GI50,HCC-2998 colon,1.57 µM
same,TGI,HCC-2998 colon,3.1 µM
same,GI50,HCT-116 colon,0.16 µM
same,TGI,HCT-116 colon,0.368 µM
same,GI50,HCT-15 colon,0.314 µM
same,TGI,HCT-15 colon,1.03 µM
same,GI50,HL-60(TB) leukemia,0.615 µM
same,TGI,HL-60(TB) leukemia,2.94 µM
same,GI50,HOP-62 NSCLC,1.34 µM
same,TGI,HOP-62 NSCLC,3.47 µM
same,GI50,HOP-92 NSCLC,0.548 µM
same,TGI,HOP-92 NSCLC,2.15 µM
same,GI50,HS 578T breast,1.24 µM
same,TGI,HS 578T breast,3.87 µM
same,GI50,HT29 colon,0.408 µM
same,TGI,HT29 colon,1.59 µM
same,GI50,IGROV1 ovarian,0.66 µM
same,TGI,IGROV1 ovarian,1.91 µM
same,GI50,K-562 leukemia,0.398 µM
same,TGI,K-562 leukemia,> 40 µM
same,GI50,KM12 colon,1.52 µM
same,TGI,KM12 colon,3.09 µM
same,GI50,LOX IMVI melanoma,0.185 µM
same,TGI,LOX IMVI melanoma,0.405 µM
same,GI50,M14 melanoma,0.763 µM
same,TGI,M14 melanoma,2.15 µM
same,GI50,MALME-3M melanoma,1.38 µM
same,TGI,MALME-3M melanoma,2.77 µM
same,GI50,MCF7 breast,0.434 µM
same,TGI,MCF7 breast,2.07 µM
same,GI50,MDA-MB-231 breast,0.963 µM
same,TGI,MDA-MB-231 breast,2.44 µM
same,GI50,MDA-MB-435,0.709 µM
same,TGI,MDA-MB-435,2.08 µM
same,GI50,MOLT-4 leukemia,0.488 µM
same,TGI,MOLT-4 leukemia,2.49 µM
same,GI50,NCI-H226 lung,1.42 µM
same,TGI,NCI-H226 lung,3.11 µM
same,GI50,NCI-H23 lung,1.44 µM
same,TGI,NCI-H23 lung,3.14 µM
same,GI50,NCI-H460 lung,1.53 µM
same,TGI,NCI-H460 lung,3.33 µM
same,GI50,NCI-H522 lung,0.552 µM
same,TGI,NCI-H522 lung,2.19 µM
same,GI50,NCI/ADR-RES ovarian,1.63 µM
same,TGI,NCI/ADR-RES ovarian,7.59 µM
same,GI50,OVCAR-3 ovarian,0.281 µM
same,TGI,OVCAR-3 ovarian,0.921 µM
same,GI50,OVCAR-4 ovarian,0.959 µM
same,TGI,OVCAR-4 ovarian,2.31 µM
same,GI50,OVCAR-5 ovarian,1.24 µM
same,TGI,OVCAR-5 ovarian,2.68 µM
same,GI50,OVCAR-8 ovarian,0.829 µM
same,TGI,OVCAR-8 ovarian,2.82 µM
same,GI50,PC-3 prostate,0.965 µM
same,TGI,PC-3 prostate,2.68 µM
same,GI50,RPMI-8226 leukemia,0.357 µM
same,TGI,RPMI-8226 leukemia,1.94 µM
same,GI50,RXF 393 renal,0.338 µM
same,TGI,RXF 393 renal,1.26 µM
same,GI50,SF-268 CNS,1.44 µM
same,TGI,SF-268 CNS,2.91 µM
same,GI50,SF-295 CNS,3.32 µM
same,TGI,SF-295 CNS,7.68 µM
same,GI50,SF-539 CNS,0.962 µM
same,TGI,SF-539 CNS,2.17 µM
same,GI50,SK-MEL-2 melanoma,1.48 µM
same,TGI,SK-MEL-2 melanoma,3.2 µM
same,GI50,SK-MEL-28 melanoma,1.24 µM
same,TGI,SK-MEL-28 melanoma,2.51 µM
same,GI50,SK-MEL-5 melanoma,1.61 µM
same,TGI,SK-MEL-5 melanoma,2.99 µM
same,GI50,SK-OV-3 ovarian,6.03 µM
same,TGI,SK-OV-3 ovarian,18.6 µM
same,GI50,SN12C renal,0.839 µM
same,TGI,SN12C renal,2.18 µM
same,GI50,SNB-19 CNS,1.8 µM
same,TGI,SNB-19 CNS,4.09 µM
same,GI50,SNB-75 CNS,0.328 µM
same,TGI,SNB-75 CNS,1.8 µM
same,GI50,SR leukemia,0.43 µM
same,TGI,SR leukemia,4.22 µM
same,GI50,SW-620 colon,0.333 µM
same,TGI,SW-620 colon,1.13 µM
same,GI50,T-47D breast,1.91 µM
same,TGI,T-47D breast,5.29 µM
same,GI50,TK-10 renal,1.18 µM
same,TGI,TK-10 renal,2.43 µM
same,GI50,U251 CNS,1.4 µM
same,TGI,U251 CNS,2.91 µM
same,GI50,UACC-257 melanoma,1.36 µM
same,TGI,UACC-257 melanoma,3.38 µM
same,GI50,UACC-62 melanoma,1.16 µM
same,TGI,UACC-62 melanoma,2.47 µM
same,GI50,UO-31 renal,0.406 µM
same,TGI,UO-31 renal,1.19 µM
